# Experimental data published in patent US20140142035A1, “METHODS AND COMPOSITIONS FOR MODULATING INSULIN REGULATION” (The Washington University, priority 2010, published 2014).
# Entries after “also recorded” stand apart in the source; their conditions may differ. Where no end group is shown, it is not given here.
# Columns and labels:
# MIN6 cells = assay: Insulin release assay with MIN6 cells; type: cell-based; settings: for glucose-stimulated insulin release: MIN6 cells, 100 nM peptide, 60 min
# Procedure: (§1) Primary mouse islets (panel A) or MIN6 cells (panel B) were incubated for 1-h in insulin assay buffer (KRB) containing 2.5 mM glucose. Islets or cells were then switched to KRB containing the indicated concentration of glucose with or without 100 nM GIP, GLP-1, Xenin-8, or Xenin-25. Sixty-minutes later, assay buffer was collected and the amount of insulin released determined by RIA.
# (§2) Insulin release assays (static incubations) were conducted at the indicated concentration of glucose with islets isolated from WT C57BL/6J mice (Panel A; 5 islets per sample; 6 samples per condition) or Min6 cells (Panels B, C; 4 wells per condition). 100 nM GIP, GLP-1, or Xenin-25 (Xen) was added to some samples in Panels A, B. Peptides were added at the indicated concentrations in Panels C.
# Next, studies were performed with MIN6 cells, a well-characterized, glucose-responsive, insulin-producing cell line. First, insulin release assays were conducted in the presence of peptides. […] Second, Min6 cells were treated with GLP-1, GIP, or Xenin-25 and Western blots conducted to determine whether the Xenin-25 increased MAPK signaling. […] Finally, insulin release assays were conducted in the presence of GIP plus Xenin-25.
# [1] = system: MAPK signaling in Min6 Cells; assay: Western blot for phosphorylated (active) MAPK in Min6 cells; type: cell-based; settings: 10 minutes, 7.5 mM glucose, 100 nM peptide
# WT mice = assay: Plasma insulin 5 minutes after i.p. glucose with peptides, wild type mice; type: in vivo, mouse
# Procedure: (§3) WT and DT mice were fasted for 16-h (Fast). As indicated, some mice were then administered an intraperitoneal injection of glucose (1 g/kg) with vehicle alone (BSA), GIP alone, Xenin-25 alone (Xen) or GIP plus Xenin-25 (G+X). […] Five minutes after injection of glucose, blood was collected and plasma prepared for insulin assays.
# (§4) WT and DT mice were fasted for 16-h (Fast). As indicated, some mice were then administered an intraperitoneal injection of glucose (1 g/kg) with vehicle alone (BSA), GIP alone, Xenin-25 alone (Xen) or GIP plus Xenin-25 (G+X). Five minutes later, blood was collected. Plasma was then prepared and assayed for insulin.
# (§5) Activation of parasympathetic neurons that innervate the pancreas can increase glucose-mediated insulin release in vivo. […] Wild type and GIP/DT mice were fasted overnight and then administered glucose in combination with GIP plus Xenin-25 by intraperitoneal injection. […] Blood was collected and plasma prepared 5 minutes after the glucose injection. […] Subsets of parasympathetic neurons that innervate the islets release vasoactive intestinal polypeptide (VIP) and pituitary adenylate cyclase activating peptide (PACAP) when activated. N-terminally truncated forms of PACAP [PACAP(6-38) or PACAP(6-27)] are competitive inhibitors of both VIP receptors (VPAC1 and VPAC2) as well as the PACAP-specific receptor Pac.
# primary mouse islets = assay: Insulin release assay (static incubation) with primary mouse islets; type: cell-based; settings: 100 nM peptide, 60 min, RIA
# Procedure: as §1
# as §1, with “islets” for “islets (panel A) or MIN6 cells (panel B)”, “Islets” for “Islets or cells”, “Xenin-8.” for “GIP, GLP-1, Xenin-8, or Xenin-25.”
# as §2
# Experiments were conducted to determine whether Xenin-25 acts directly on pancreatic islet beta cells (FIG. 23). Islets were isolated from wild type C57BL/6J mice and then subjected to insulin release assays (FIG. 23A) in the presence of different concentrations of glucose. […]
# NONcNZO10/Ltj mice [2] = assay: Plasma insulin after i.p. glucose plus peptides in mouse model of human T2DM; type: in vivo; settings: 8-week old pre-diabetic mice (FIG. 22A); 15 minutes after i.p. glucose 1 g/kg
# Procedure: Panel A depicts plasma insulin levels in 8-week old pre-diabetic mice.
# NONcNZO10/Ltj mice were fasted for 16-h. Blood was collected before (0) or 15 minutes after an intraperitoneal injection of glucose (1 g/kg) in the presence of vehicle alone (BSA), GIP alone, Xenin-25 alone (Xen) or GIP plus Xenin-25 (GIP+Xen). […] (FIG. 22A).
# GIP/DT mice = assay: Plasma insulin 5 minutes after i.p. glucose with peptides, GIP/DT mice; type: in vivo, mouse
# Procedure: as §3, §4, §5
# NONcNZO10/Ltj mice [3] = assay: Blood glucose after i.p. glucose plus peptides in mouse model of human T2DM; type: in vivo; settings: glucose 1 g/kg i.p.
# Procedure: Panel A depicts blood glucose levels in 5-week old pre-diabetic mice. Panel B depicts blood glucose levels in 16-week old diabetic mice. Panel C depicts the area under the curve for data in panels A and B as well as for a third experiment using 18-week old mice. * indicates P value<0.05 versus mice of the same age receiving BSA alone.
# At the age indicated in FIG. 21, mice were fasted for 16-h. Blood glucose levels were measured before and at the indicated time after an intraperitoneal injection of glucose (1 g/kg) plus vehicle alone (BSA), GIP alone, Xenin-25 alone (Xen) or GIP plus Xenin-25 (GIP+Xen).
# perfused rat pancreas = settings: supraphysiologic concentrations; cited from earlier work
molecule,measurement,setting,value
glucose-dependent insulinotropic polypeptide [GIP],glucose-stimulated insulin release,MIN6 cells,glucose-stimulated insulin release was amplified; also recorded: potentiate glucose-stimulated insulin release
same,"insulin release, GIP with/without Xenin-25","MIN6 cells; Min6 cells, peptides at indicated concentrations (FIG. 23C)",dose-dependent increase in insulin release
same,phosphorylation of MAPK,[1],profound increases in phosphorylation of MAPK
same,increase in plasma insulin levels,"WT mice; WT mice, 5 minutes after i.p. glucose 1 g/kg",greater than 3 fold
same,glucose-stimulated insulin release,primary mouse islets,insulin release is potentiated; also recorded: potentiate glucose-stimulated insulin release
same,plasma insulin levels,NONcNZO10/Ltj mice [2],little effect on plasma insulin levels
same,plasma insulin levels,"GIP/DT mice; GIP/DT mice, 5 minutes after i.p. glucose 1 g/kg",much smaller increase in plasma insulin levels than was observed in WT mice
same,blood glucose levels after i.p. glucose,NONcNZO10/Ltj mice [3]; 5-week old pre-diabetic mice,does not significantly improve blood glucose levels
same,blood glucose levels after i.p. glucose,NONcNZO10/Ltj mice [3]; 16-week old diabetic mice,modest improvement in blood glucose levels
CN1[C@@H]2CC[C@H]1C[C@@H](OC(=O)C(CO)c1ccccc1)C2 (stereo partly drawn) [atropine],effect on insulin release with GIP plus Xenin-25,"WT mice; wild type mice, atropine i.p. 15 minutes before glucose",no statistically significant effect on insulin release
"Xenin: xenin protein, form (xenin-25 or fragment) not specified at the place (MLTKFETKSARVKGLSFHPKRPWIL; Xenin; UniProt P53621 1-25, looked up)",glucose-stimulated insulin release,perfused rat pancreas,increased glucose-stimulated insulin release
"PACAP(6-38): N-terminally truncated PACAP; competitive inhibitor of VIP receptors (VPAC1 and VPAC2) and PACAP-specific receptor (FTDSYSRYRKQMAVKKYLAAVLGKRYKQRVKNK; ends and bridges not checked; UniProt P18509 137-169, looked up, fragment)",inhibition of Xenin-25 potentiation of GIP-mediated increase in plasma insulin,"GIP/DT mice; given along with peptides (FIG. 25C), mouse line not stated",did not inhibit Xenin-25 potentiation of the GIP-mediated increase in plasma insulin levels
"glucagon like peptide 1 (HAEGTFTSDVSSYLEGQAAKEFIAWLVKGR; ends and bridges not checked; UniProt P01275 98-127, looked up) [GLP-1, incretin hormone; synthetic GLP-1(7-36) used in vivo]",glucose-stimulated insulin release,MIN6 cells,glucose-stimulated insulin release was amplified; also recorded: potentiate glucose-stimulated insulin release
same,phosphorylation of MAPK,[1],profound increases in phosphorylation of MAPK
same,glucose-stimulated insulin release,primary mouse islets,insulin release is potentiated; also recorded: potentiate glucose-stimulated insulin release
